In US8492408B2, “Benzimidazole derivatives and their use for modulating the GABAA receptor complex” (Aniona APS, priority 2008, dated 2013):

biological target: benzodiazepine modulatory unit of the GABAA receptor complex (3H-flunitrazepam binding, cerebral cortex membranes); experiment: In vitro inhibition of 3H-flunitrazepam (3H-FNM) binding; set-up: species or system rat; settings: inhibition of specific 3H-FNM (1 nM) binding, cerebral cortex membranes from male Wistar rats, 40 min at 2° C.
Experimental: In Vitro Inhibition of ^3H-Flunitrazepam (^3H-FNM) Binding
The GABA recognition site and the benzodiazepine modulatory unit can selectively be labelled with ^3H-flunitrazepam.
Preparations are performed at 0-4° C. unless otherwise indicated. Cerebral cortex from male Wistar rats (150-200 g) is homogenised for 5-10 sec in 20 ml Tris-HCl (30 mM, pH 7.4) using an Ultra-Turrax homogeniser. The suspension is centrifuged at 27,000×g for 15 min and the pellet is washed three times with buffer (centrifuged at 27,000×g for 10 min). The washed pellet is homogenized in 20 ml of buffer and incubated on a water bath (37° C.) for 30 min to remove endogenous GABA and then centrifuged for 10 min at 27,000×g. The pellet is then homogenized in buffer and centrifuged for 10 min at 27,000×g. The final pellet is resuspended in 30 ml buffer and the preparation is frozen and stored at −20° C.
The membrane preparation is thawed and centrifuged at 2° C. for 10 min at 27,000×g. The pellet is washed twice with 20 ml 50 mM Tris-citrate, pH 7.1 using an Ultra-Turrax homogeniser and centrifuged for 10 min at 27,000×g. The final pellet is resuspended in 50 mM Tris-citrate, pH 7.1 (500 ml buffer per g of original tissue), and then used for binding assays. Aliquots of 0.5 ml tissue are added to 25 μl of test solution and 25 μl of ^3H-FNM (1 nM, final concentration), mixed and incubated for 40 min at 2° C. Non-specific binding is determined using Clonazepam (1 μM, final concentration). After incubation the samples are added 5 ml of ice-cold buffer and poured directly onto Whatman GF/C glass fibre filters under suction and immediately washed with 5 ml ice-cold buffer. The amount of radioactivity on the filters is determined by conventional liquid scintillation counting. Specific binding is total binding minus non-specific binding.
The test value will be given as IC50 (the concentration (μM) of the test substance which inhibits the specific binding of ^3H-FNM by 50%).
Co is specific binding in control assays, and
Cx is the specific binding in the test assay.
(The calculations assume normal mass-action kinetics).

IC50 | SMILES
1.2 nM | COc1ncccc1-c1cc(-n2cnc3cc(C(C)(C)O)ccc32)ccn1 [Compound 7a, 2-[1-(2′-Methoxy-[2,3′]bipyridinyl-4-yl)-1H-benzoimidazol-5-yl]-propan-2-ol]
38 nM | CC(C)(O)c1ccc2c(c1)ncn2-c1ccnc(-c2cccnc2Cl)c1 [Compound 7b, 2-[1-(2′-Chloro-[2,3′]bipyridinyl-4-yl)-1H-benzoimidazol-5-yl]-propan-2-ol]
7.5 nM | CC(C)(O)c1ccc2c(c1)ncn2-c1ccnc(-c2ccncc2F)c1 [Compound 7c, 2-[1-(3′-Fluoro-[2,4′]bipyridinyl-4-yl)-1H-benzoimidazol-5-yl]-propan-2-ol]
26 nM | CC(C)(O)c1ccc2c(c1)ncn2-c1ccnc(-c2ccncc2C#N)c1 [Compound 7d, 4-[5-(1-Hydroxy-1-methyl-ethyl)-benzoimidazol-1-yl]-[2,4′]bipyridinyl-3′-carbonitrile]
